Molecules are shown by their SMILES.

Here are results for 4 compounds from ChEMBL document CHEMBL4033739, “Design and synthesis of novel δ opioid receptor agonists with an azatricyclodecane skeleton for improving blood-brain barrier penetration” (Bioorg Med Chem Lett, 2017).

T3 sequence (P41145 whole entry): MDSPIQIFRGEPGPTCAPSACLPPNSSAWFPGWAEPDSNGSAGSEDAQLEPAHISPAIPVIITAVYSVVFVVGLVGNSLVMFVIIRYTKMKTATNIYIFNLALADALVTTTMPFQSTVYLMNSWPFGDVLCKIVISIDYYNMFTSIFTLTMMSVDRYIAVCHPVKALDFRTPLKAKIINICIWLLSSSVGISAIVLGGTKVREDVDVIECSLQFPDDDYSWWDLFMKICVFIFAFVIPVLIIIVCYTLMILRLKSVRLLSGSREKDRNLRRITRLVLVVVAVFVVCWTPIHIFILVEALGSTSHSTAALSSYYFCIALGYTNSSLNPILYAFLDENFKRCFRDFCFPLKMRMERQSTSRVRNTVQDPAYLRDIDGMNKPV
T1 sequence (P41143 whole entry): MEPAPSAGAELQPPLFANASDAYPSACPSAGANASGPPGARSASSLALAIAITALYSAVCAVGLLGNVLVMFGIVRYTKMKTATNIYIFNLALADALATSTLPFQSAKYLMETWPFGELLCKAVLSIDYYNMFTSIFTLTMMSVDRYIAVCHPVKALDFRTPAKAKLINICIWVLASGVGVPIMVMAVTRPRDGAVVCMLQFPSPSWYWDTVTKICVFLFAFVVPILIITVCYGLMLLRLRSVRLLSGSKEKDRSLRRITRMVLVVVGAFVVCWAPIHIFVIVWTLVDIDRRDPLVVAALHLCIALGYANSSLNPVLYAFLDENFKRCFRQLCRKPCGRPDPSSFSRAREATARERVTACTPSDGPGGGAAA

The species named for one test is Homo sapiens. Nature of the test: Selectivity index, ratio of Ki for human recombinant KOR expressed in CHO cell membranes to Ki for human recombinant DOR expressed in CHO cell membranes. It is filed as cell-based.
On to `O=C(c1ccoc1)N1C[C@H]2CC34CCC1C2C31CCN(CC2CC2)C4Cc2ccc(O)cc21` (stereo partly drawn), for which the Ratio Ki worked out at 0.7.

As for `Oc1ccc2c(c1)C13CCN(CC4CC4)C(C2)C12CCC1C3[C@@H](CN1c1ccccc1)C2` (stereo partly drawn), the Ratio Ki is 1.9.

With `Oc1ccc2c(c1)C13CCN(CC4CC4)C(C2)C12CCC1C3[C@@H](CN1Cc1ccccc1)C2` (stereo partly drawn), the Ratio Ki worked out at 7.3.

Turning to `Oc1ccc2c(c1)C13CCN(CC4CC4)C(C2)C12CCC1C3[C@@H](CN1CC1CCCCC1)C2` (stereo partly drawn), the Ratio Ki is 0.5.

The next test addresses T1, Delta-type opioid receptor (Homo sapiens, UniProt P41143). Put plainly: Agonist activity at human recombinant DOR expressed in CHO cells assessed as cAMP accumulation. It is filed as functional, cell-based.
The term EC50 denotes the concentration at which the effect is half-maximal. Turning to `O=C(c1ccoc1)N1C[C@H]2CC34CCC1C2C31CCN(CC2CC2)C4Cc2ccc(O)cc21` (stereo partly drawn), the EC50 stood at 0.23 nM.

In the case of `Oc1ccc2c(c1)C13CCN(CC4CC4)C(C2)C12CCC1C3[C@@H](CN1c1ccccc1)C2` (stereo partly drawn), the half-maximal effective concentration (EC50) is 4.7 nM.

As for `Oc1ccc2c(c1)C13CCN(CC4CC4)C(C2)C12CCC1C3[C@@H](CN1Cc1ccccc1)C2` (stereo partly drawn), the half-maximal effective concentration (EC50) worked out at 0.42 nM.

For the compound `Oc1ccc2c(c1)C13CCN(CC4CC4)C(C2)C12CCC1C3[C@@H](CN1CC1CCCCC1)C2` (stereo partly drawn), the EC50 was determined as 1.7 nM.

A further test concerns the target T1, Delta-type opioid receptor. Put plainly: Displacement of [3H]DPDPE from human recombinant DOR expressed in CHO cell membranes. (In general: Displacement assays read how much labelled ligand stays bound in the presence of the test substance.)
By Ki is commonly meant the equilibrium dissociation constant of an inhibitor or competing ligand from its target. Consider `O=C(c1ccoc1)N1C[C@H]2CC34CCC1C2C31CCN(CC2CC2)C4Cc2ccc(O)cc21` (stereo partly drawn), for which the Ki stood at 0.313 nM.

For the compound `Oc1ccc2c(c1)C13CCN(CC4CC4)C(C2)C12CCC1C3[C@@H](CN1c1ccccc1)C2` (stereo partly drawn), the inhibitory constant (Ki) stood at 1.26 nM.

`Oc1ccc2c(c1)C13CCN(CC4CC4)C(C2)C12CCC1C3[C@@H](CN1Cc1ccccc1)C2` (stereo partly drawn): the Ki was 0.585 nM.

Regarding `Oc1ccc2c(c1)C13CCN(CC4CC4)C(C2)C12CCC1C3[C@@H](CN1CC1CCCCC1)C2` (stereo partly drawn), the Ki came to 1.46 nM.

The target in the next test is T2, Mu-type opioid receptor (Homo sapiens, UniProt P35372). Put plainly: Agonist activity at human recombinant MOR expressed in CHO cells assessed as cAMP accumulation at 10 uM relative to DAMGO. Type of test: functional, cell-based. (In general: Changes in cAMP serve as a functional read-out for many G protein-coupled receptors.)
T2 sequence (P35372 whole entry): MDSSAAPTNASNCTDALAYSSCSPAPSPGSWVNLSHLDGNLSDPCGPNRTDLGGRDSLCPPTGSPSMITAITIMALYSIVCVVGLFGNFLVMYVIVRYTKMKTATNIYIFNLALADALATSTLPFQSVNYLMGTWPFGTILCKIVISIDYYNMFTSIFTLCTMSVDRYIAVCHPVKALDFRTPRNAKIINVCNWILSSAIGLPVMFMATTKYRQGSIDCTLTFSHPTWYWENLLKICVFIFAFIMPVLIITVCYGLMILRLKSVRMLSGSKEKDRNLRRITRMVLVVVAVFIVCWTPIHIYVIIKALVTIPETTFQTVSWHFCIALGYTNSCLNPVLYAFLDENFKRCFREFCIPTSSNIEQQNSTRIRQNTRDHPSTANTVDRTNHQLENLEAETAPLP
Broadly, the Emax is the size of the effect at its maximum, as opposed to the concentration needed. For `Oc1ccc2c(c1)C13CCN(CC4CC4)C(C2)C12CCC1C3[C@@H](CN1Cc1ccccc1)C2` (stereo partly drawn), the Emax was 18%.

In the next test the target is T2, Mu-type opioid receptor. Nature of the test: Agonist activity at human recombinant MOR expressed in CHO cells assessed as cAMP accumulation. It is filed as functional, cell-based.
Consider `O=C(c1ccoc1)N1C[C@H]2CC34CCC1C2C31CCN(CC2CC2)C4Cc2ccc(O)cc21` (stereo partly drawn), for which the EC50 came to 155 nM.

Consider `Oc1ccc2c(c1)C13CCN(CC4CC4)C(C2)C12CCC1C3[C@@H](CN1c1ccccc1)C2` (stereo partly drawn), for which the half-maximal effective concentration (EC50) was 10 nM.

Consider `Oc1ccc2c(c1)C13CCN(CC4CC4)C(C2)C12CCC1C3[C@@H](CN1CC1CCCCC1)C2` (stereo partly drawn), for which the 50% effective concentration (EC50) is 21 nM.

A further test addresses T2, Mu-type opioid receptor. Nature of the test: Displacement of [3H]DAMGO from human recombinant MOR expressed in CHO cell membranes.
Take `O=C(c1ccoc1)N1C[C@H]2CC34CCC1C2C31CCN(CC2CC2)C4Cc2ccc(O)cc21` (stereo partly drawn): the Ki came out at 0.455 nM.

As to `Oc1ccc2c(c1)C13CCN(CC4CC4)C(C2)C12CCC1C3[C@@H](CN1c1ccccc1)C2` (stereo partly drawn), the Ki is 0.953 nM.

Turning to `Oc1ccc2c(c1)C13CCN(CC4CC4)C(C2)C12CCC1C3[C@@H](CN1Cc1ccccc1)C2` (stereo partly drawn), the Ki came to 3.44 nM.

Consider `Oc1ccc2c(c1)C13CCN(CC4CC4)C(C2)C12CCC1C3[C@@H](CN1CC1CCCCC1)C2` (stereo partly drawn), for which the inhibition constant (Ki) was found to be 2.5 nM.

Another test addresses T3, Kappa-type opioid receptor (Homo sapiens, UniProt P41145). Nature of the test: Agonist activity at human recombinant KOR expressed in CHO cells assessed as cAMP accumulation. Type of test: functional, cell-based.
`O=C(c1ccoc1)N1C[C@H]2CC34CCC1C2C31CCN(CC2CC2)C4Cc2ccc(O)cc21` (stereo partly drawn): the 50% effective concentration (EC50) came to 1.4 nM.

For the compound `Oc1ccc2c(c1)C13CCN(CC4CC4)C(C2)C12CCC1C3[C@@H](CN1c1ccccc1)C2` (stereo partly drawn), the EC50 was determined as 8.1 nM.

Turning to `Oc1ccc2c(c1)C13CCN(CC4CC4)C(C2)C12CCC1C3[C@@H](CN1Cc1ccccc1)C2` (stereo partly drawn), the 50% effective concentration (EC50) turned out to be 4.5 nM.

`Oc1ccc2c(c1)C13CCN(CC4CC4)C(C2)C12CCC1C3[C@@H](CN1CC1CCCCC1)C2` (stereo partly drawn): the EC50 came to 5.7 nM.

The target in another test is T1, Delta-type opioid receptor. Put plainly: Agonist activity at human recombinant DOR expressed in CHO cells assessed as cAMP accumulation relative to SNC80. It is filed as functional, cell-based.
`O=C(c1ccoc1)N1C[C@H]2CC34CCC1C2C31CCN(CC2CC2)C4Cc2ccc(O)cc21` (stereo partly drawn): the Emax was 93%.

Consider `Oc1ccc2c(c1)C13CCN(CC4CC4)C(C2)C12CCC1C3[C@@H](CN1c1ccccc1)C2` (stereo partly drawn), for which the Emax came out at 82%.

`Oc1ccc2c(c1)C13CCN(CC4CC4)C(C2)C12CCC1C3[C@@H](CN1Cc1ccccc1)C2` (stereo partly drawn): the Emax amounted to 90%.

In the case of `Oc1ccc2c(c1)C13CCN(CC4CC4)C(C2)C12CCC1C3[C@@H](CN1CC1CCCCC1)C2` (stereo partly drawn), the Emax worked out at 82%.

In a further test the target is T2, Mu-type opioid receptor. Nature of the test: Agonist activity at human recombinant MOR expressed in CHO cells assessed as cAMP accumulation relative to DAMGO. It is filed as functional, cell-based.
Turning to `O=C(c1ccoc1)N1C[C@H]2CC34CCC1C2C31CCN(CC2CC2)C4Cc2ccc(O)cc21` (stereo partly drawn), the maximal response (Emax) amounted to 50%.

In the case of `Oc1ccc2c(c1)C13CCN(CC4CC4)C(C2)C12CCC1C3[C@@H](CN1c1ccccc1)C2` (stereo partly drawn), the Emax came to 50%.

As for `Oc1ccc2c(c1)C13CCN(CC4CC4)C(C2)C12CCC1C3[C@@H](CN1CC1CCCCC1)C2` (stereo partly drawn), the maximal effect (Emax) is 17%.

In another test the target is T3, Kappa-type opioid receptor. Nature of the test: Agonist activity at human recombinant KOR expressed in CHO cells assessed as cAMP accumulation relative to U-69,593. Type of test: functional, cell-based.
Turning to `O=C(c1ccoc1)N1C[C@H]2CC34CCC1C2C31CCN(CC2CC2)C4Cc2ccc(O)cc21` (stereo partly drawn), the Emax is 33%.

Consider `Oc1ccc2c(c1)C13CCN(CC4CC4)C(C2)C12CCC1C3[C@@H](CN1c1ccccc1)C2` (stereo partly drawn), for which the maximum response (Emax) worked out at 54%.

As for `Oc1ccc2c(c1)C13CCN(CC4CC4)C(C2)C12CCC1C3[C@@H](CN1Cc1ccccc1)C2` (stereo partly drawn), the Emax was determined as 36%.

For `Oc1ccc2c(c1)C13CCN(CC4CC4)C(C2)C12CCC1C3[C@@H](CN1CC1CCCCC1)C2` (stereo partly drawn), the maximal response (Emax) was 45%.

The species entered for another test is Homo sapiens. Nature of the test: Selectivity index, ratio of Ki for human recombinant MOR expressed in CHO cell membranes to Ki for human recombinant DOR expressed in CHO cell membranes. It is filed as cell-based.
On to `O=C(c1ccoc1)N1C[C@H]2CC34CCC1C2C31CCN(CC2CC2)C4Cc2ccc(O)cc21` (stereo partly drawn), for which the Ratio Ki was 1.5.

`Oc1ccc2c(c1)C13CCN(CC4CC4)C(C2)C12CCC1C3[C@@H](CN1c1ccccc1)C2` (stereo partly drawn): the Ratio Ki worked out at 0.8.

With `Oc1ccc2c(c1)C13CCN(CC4CC4)C(C2)C12CCC1C3[C@@H](CN1Cc1ccccc1)C2` (stereo partly drawn), the Ratio Ki amounted to 5.9.

On to `Oc1ccc2c(c1)C13CCN(CC4CC4)C(C2)C12CCC1C3[C@@H](CN1CC1CCCCC1)C2` (stereo partly drawn), for which the Ratio Ki is 1.7.

A further test addresses T3, Kappa-type opioid receptor. Nature of the test: Displacement of [3H]U-69,593 from human recombinant KOR expressed in CHO cell membranes.
Regarding `O=C(c1ccoc1)N1C[C@H]2CC34CCC1C2C31CCN(CC2CC2)C4Cc2ccc(O)cc21` (stereo partly drawn), the inhibition constant (Ki) amounted to 0.221 nM.

As for `Oc1ccc2c(c1)C13CCN(CC4CC4)C(C2)C12CCC1C3[C@@H](CN1c1ccccc1)C2` (stereo partly drawn), the Ki was 2.43 nM.

As for `Oc1ccc2c(c1)C13CCN(CC4CC4)C(C2)C12CCC1C3[C@@H](CN1Cc1ccccc1)C2` (stereo partly drawn), the inhibition constant (Ki) was determined as 4.26 nM.

Consider `Oc1ccc2c(c1)C13CCN(CC4CC4)C(C2)C12CCC1C3[C@@H](CN1CC1CCCCC1)C2` (stereo partly drawn), for which the inhibitory constant (Ki) came to 0.781 nM.
